From US20260210856A1, “CONJUGATED OLIGOELECTROLYTES WITH BORON-DIPYRROMETHENE CORES AND METHODS THEREOF” (National University of Singapore, priority 2022, published 2026)

Legend:
[1] = commercial dyes for comparison; cited from earlier work
[2] = Photophysical properties in PBS and in SUVs (POPC:POPG 85:15); format: physicochemical; details: for FWHM: fluorescence spectra, intercalated within SUVs; for fluorescence intensity increase upon inserting into lipid bilayers: relative to the values measured in PBS
Source text: The photophysical properties of the COE-BY series were studied in phosphate-buffered saline (PBS) and within model lipid bilayers. Small unilamellar vesicles (SUVs) composed of 1-palmitoyl-2-oleoyl-glycero-3-phosphocholine (POPC) and 1-palmitoyl-2-oleoyl-sn-glycero-3-phospho-(1′-rac-glycerol) sodium (POPG) (85:15, mol/mol) were used to simulate the lipid environment in cell membranes. The absorption spectra in PBS for all compounds feature a main peak at ~550 nm, reflecting the presence of the BODIPY subunit (FIG. 9A). One also observes a 5-10 nm red-shift of lowest energy absorption peak with increasing electron-withdrawing strength of the phenyl substituents.
Upon inserting into lipid bilayers, the fluorescence intensity increases over 27-fold for COE-BYPhMe, 30-fold for COE-BYPhOC4, 35-fold for COE-BYPhCN and 40-fold for COE-BYPhNO, relative to the values measured in PBS (FIG. 1c and FIG. S5). The increase in emission intensity reflects a transition to a more rigid and hydrophobic environment. Quantum yields increase to 32% for COE-BYPhMe, 60% for COE-BYPhOC4, 13% for COE-BYPhCN, and 10% for COE-BYPhNO in SUVs from 1% for COE-BYPhMe, 3% for COE-BYPhOC4, and 0.5% for COE-BYPhCN in PBS. The QY of COE-BYPhNO in PBS cannot be accurately determined by using a conventional fluorometer due to its weak fluorescence. The maximum emission wavelengths are redshifted from 587/589 nm (COE-BYPhMe/OC4) to 605/611 nm (COE-BYPhCN/NO) as a result of the decreased HOMO-LUMO energy gaps. […] Furthermore, the fluorescence spectra of COE-BYs intercalated within SUVs show a narrow band at wavelengths between 587 nm and 611 nm, with a full width half maximum (FWHM) linewidth of 52-68 nm (Table 1).

A549 cells = assay: Two-photon fluorescence imaging and FLIM of stained cells; format: cell-based; details: A549, 1 μM, 24 hours
Source text: Fluorescence imaging is usually based on the analysis of fluorescence intensity, which is affected by many factors including dye concentration, laser power, the sensitivity of the detector, and sampling time. The main advantage of fluorescence lifetime imaging (FLIM) is independent of the above experimental conditions, especially the local dye concentration gradients, which makes FLIM an ideal method for studies in living cell models. […] The fluorescence lifetime of COE-BYs could be a function of viscosity after calibration. FLIM makes it possible to produce spatial viscosity maps after staining with COE-BYs. A549 cells were stained with COE-BYPhMe and COE-S6 (1 μM) for 24 hours, respectively. The cell samples were analyzed using two-photon fluorescence imaging and FLIM.

## CCCCCCCCCCCCCCCCCCN1/C(=C/C=C/C2=[N+](CCCCCCCCCCCCCCCCCC)c3ccccc3C2(C)C)C(C)(C)c2ccccc21.[O-][Cl+3]([O-])([O-])[O-] [DiL, carbocyanine DiL]
[1]
  two photon absorption cross section area: 10 GM

## CC1=C(c2ccc(/C=C/c3cc(OCCCCCC[N+](C)(C)C)c(OCCCCCC[N+](C)(C)C)c(OCCCCCC[N+](C)(C)C)c3)cc2)C(C)=[N+]2C1=C(c1ccc(C#N)cc1)c1c(C)c(-c3ccc(/C=C/c4cc(OCCCCCC[N+](C)(C)C)c(OCCCCCC[N+](C)(C)C)c(OCCCCCC[N+](C)(C)C)c4)cc3)c(C)n1[B-]2(F)F.[I-].[I-].[I-].[I-].[I-].[I-] [COE-BYPhCN]
[2]
  FWHM: 63 nm
  ΦF in SUVs: 13%
  λem in SUVs: 605 nm
  fluorescence intensity increase upon inserting into lipid bilayers: > 35 fold
[2]; in PBS
  ΦF in PBS: 0.5%
  λabs: 550 nm
  λem in PBS: 618 nm

## C[N+](C)(C)CCCCCCOc1cc(/C=C/c2ccc(/C=C/c3ccc(/C=C/c4ccc(/C=C/c5ccc(/C=C/c6cc(OCCCCCC[N+](C)(C)C)c(OCCCCCC[N+](C)(C)C)c(OCCCCCC[N+](C)(C)C)c6)cc5)cc4)cc3)cc2)cc(OCCCCCC[N+](C)(C)C)c1OCCCCCC[N+](C)(C)C.[I-].[I-].[I-].[I-].[I-].[I-] [COE-S6]
A549 cells
  lifetimes in phasor plot: only single area in the phasor plot

## CCN(CC)c1ccc2c(-c3ccccc3C(=O)O)c3ccc(=[N+](CC)CC)cc-3oc2c1.[Cl-] [Rhodamine B]
[1]
  two photon absorption cross section area: 150 GM

## CC1=C(c2ccc(/C=C/c3cc(OCCCCCC[N+](C)(C)C)c(OCCCCCC[N+](C)(C)C)c(OCCCCCC[N+](C)(C)C)c3)cc2)C(C)=[N+]2C1=C(c1ccc([N+](=O)[O-])cc1)c1c(C)c(-c3ccc(/C=C/c4cc(OCCCCCC[N+](C)(C)C)c(OCCCCCC[N+](C)(C)C)c(OCCCCCC[N+](C)(C)C)c4)cc3)c(C)n1[B-]2(F)F.[I-].[I-].[I-].[I-].[I-].[I-] [COE-BYPhNO]
[2]
  FWHM: 68 nm
  ΦF in SUVs: 10%
  λem in SUVs: 611 nm
  fluorescence intensity increase upon inserting into lipid bilayers: > 40 fold
[2]; in PBS
  λabs: 556 nm
  λem in PBS: 625 nm
